Laboratory results as given in patent publication US9937250B2, “Immunogenic tumor associated stromal cell antigen peptides and methods of their use” (University of Pittsburgh—Of the Commonwealth System of …, priority 2011, dated 2018).

Key:
[1] = test system: CD8+ T cells from HLA-A2+ normal donors or HLA-A2+ melanoma patients; test: In vitro sensitization of human CD8+ T cells with TASA peptide-pulsed autologous DC, IFN-γ ELISA against peptide-pulsed T2 cells; type: cell-based
Procedure: The indicated peptides were pulsed onto autologous DC and used to prime and boost CD8^+ T cells isolated from the peripheral blood of eight normal HLA-A2^+ donors or ten HLA-A2^+ patients with melanoma. Seven days after the primary in vitro sensitization (IVS) (melanoma patients) or a secondary IVS boost (normal donors), T cells were analyzed for their reactivity against HLA-A2^+ T2 cells pulsed with the relevant peptide vs. the negative control HIV-nef190-198 peptide. After 24 hours of co-culture, cell-free supernatants were analyzed for levels of secreted IFN-γ using a commercial ELISA. Data are reported in Bar and Whisker plots, with p-values provided for paired pre- versus post-IVS data from normal donors and patients. In addition, p<0.05 was detected for MEL-Post versus ND-Post for the following peptides: DLK1 (309), NG2 (770), NG2 (2238), PDGFRβ (891) and RGS5 (5).
In vitro assessment of human CD8^+ T cell responses against TASA- or TAA-derived peptides. Peripheral blood mononuclear cells (PBMC) were obtained by venipuncture or leukapheresis from HLA-A2^+ normal donors or HLA-A2^+ melanoma patients with written consent under IRB-approved protocols (Table 3). CD8^+ T cells were then isolated by MACS (Miltenyi Biotec, Auburn, Calif.) and either not stimulated or stimulated with autologous, TASA peptide-pulsed DC as previously described (Tatsumi et al., Cancer Res., 63:4481-4489, 2003). Normal donor T cells were stimulated with TASA peptide-pulsed DC twice on a weekly schedule, with responder T cells harvested for analysis of their specificity 5 days after the booster stimulation (i.e. day 12 of T cell-DC co-culture). Melanoma patient CD8^+ T cells were analyzed after a single round of stimulation with TASA peptide-pulsed, autologous DC (i.e. day 5 of T cell-DC co-culture) as indicated. For DC-based stimulations, DC were pulsed with an equimolar (1 μM each) pool of the TASA peptides (Table 4) for 4 h at 37° C. at 5% CO2 tension. These antigen-loaded DC were then used to stimulate autologous CD8^+ T cells at a T cell-to-DC ratio of 10:1 to generate a bulk population of responder T cells. T cells were maintained in IMDM media supplemented with 10% human AB serum, 100 U/ml penicillin, […], 10 mM L-glutamine and MEM non-essential amino acids (all reagents from Invitrogen, except human AB serum that was purchased from Sigma-Aldrich, St. Louis, Mo.). Responder CD8^+ T cells were analyzed for reactivity against control (HLA-A2^+) T2 cells or T2 cells pulsed with individual TASA or TAA peptides (1 μM for 4 h at 37° C.) at a CD8^+ T cell-to-T2 cell ratio of 5:1 for 24 h. Harvested cell-free supernatants were consequently assessed for hIFN-γ content using a specific ELISA (BD Biosciences, San Diego, Calif.) with a lower detection limit of 4.7 pg/ml.
CD8^+ T cells from HLA-A2^+ normal donors or HLA-A2^+ melanoma patients recognize TASA-derived peptides in vitro. To assess whether the TASA-derived peptides identified in the HHD tumor model were also capable of being recognized by human CD8^+ T cells, IVS was performed using T cells isolated from the peripheral blood of HLA-A2^+ donors or HLA-A2^+ patients with melanoma. DC were pulsed with peptides derived from a given TASA for 4 h at 37° C., then washed and used as stimulator cells for autologous CD8^+ T cells. In cases where more than one peptide existed for a given protein, DC were pulsed with an equimolar (10 μM) mixture of each peptide. Two rounds of IVS using TASA for normal donors and a single-round of IVS using TASA for melanoma patients was applied. HLA-A2^+ normal donors (FIG. 4; Tables 4, 5A and 5B) and melanoma patients (FIG. 4; Tables 4, 5A and 5B) were each capable of recognizing many of the TASA-derived peptides.

MC38 colon carcinoma = test: MC38 protection (prophylactic vaccination) model; type: in vivo, HHD mice; settings: for Anti-tumor efficacy in MC38 protection model: DC.IL12 pulsed with a pool of 1 or more peptides derived from the indicated TBVA, vaccination d-14, d-7; for Protection against HLA-A2neg MC38 tumor challenge: immunization days -14 and -7, tumor challenge day 0 (FIG. 9B)
Description: FIGS. 9A-9B show a series of graphs illustrating induction of specific/protective CD8^+ T cells reactive against TASA as a consequence of DC/peptide-based vaccination. In FIG. 9A, HHD mice (five animals/cohort) were vaccinated twice (d-14, d-7) subcutaneously with PBS or with isologous DC.IL12 pulsed with PBS or synthetic peptides (Table 6) derived from the indicated TASA. In cases where more than 1 peptide was identified for a given target antigen, an equimolar pool of the indicated peptides (each 10 μM) was pulsed onto DC.IL12 and used for vaccination in the relevant cohort. One week after the second immunization, spleens were harvested and splenic CD8^+ T cells isolated using MACS-beads (Miltenyi). T cells were stimulated in vitro for 48 h using the HLA-A2^+ T2 cell line pulsed with relevant TASA vs. irrelevant HIV-nef190-198 ([…]; ref. 24) peptides. Cell-free supernatants were then recovered and IFN-γ levels by ELISA. Data are reported as mean+/−SD for triplicate ELISA determinations, and are representative of 3 independent experiments performed. *p<0.05 vs. HIV-nef control peptide responses. In FIG. 9B, HHD mice were vaccinated twice (days −14 and −7; right flank) subcutaneously with PBS or with isologous DC.IL12 pulsed with PBS or synthetic TASA peptides as indicated in FIG. 1A. In cases where more than 1 peptide is identified for a given target antigen, an equimolar pool of the indicated peptides (each 10 μM) was pulsed onto DC.IL12 and used for vaccination in the relevant cohort. One week after the booster vaccine (i.e. day zero), animals were challenged subcutaneously on their left flank with 2×10^6 MC38 colon carcinoma cells. Tumor growth was then monitored every 3-4 days through day 24. All data represent mean tumor area (in mm^2)+/−SD determined from 5 mice/cohort, and are representative of three independent experiments performed. *p<0.05 versus DC only on the indicated days.
Vaccine Experiments. For prophylactic experiments, HHD mice were immunized subcutaneously on the right flank with 100 μl PBS or PBS containing 10^6 syngenic DC.IL12 cells that had been untreated or pre-pulsed for 4 h at 37° C. with 10 μM synthetic peptide(s). Immunizations occurred on days −14 and −7, with mice subsequently receiving injections of MC38 (2×10^6) tumor cells in the left flank on d0. In all cases, treatment groups contained 5 mice per cohort. For analysis of tumor cellular composition in repeat experiments, MC38 tumors were isolated by surgical resection 10 days after tumor inoculation and prepared for fluorescence imaging, as described below. […] Mice were then untreated or treated with control, syngenic DC.IL12 or DC.IL12 (10^6 cells injected subcutaneously in the left flank on days 7 and 14) pulsed with synthetic TBVA peptides. In some assays, as indicated, in vivo antibody depletions (on days 6, 13 and 20 post-tumor inoculation to assess early involvement or on days 60 and 67 or 180 and 187 to assess late involvement) of protective CD4^+ T cells or CD8^+ T cells were performed and monitored as previously described (Zhao et al., Mol Ther., 19:805-814, 2011). In all cases, tumor size (area) was monitored every 3-4 days and is reported as mean+/−SD in mm^2.
The DLK1, EphA2, HBB, NG2, NRP1, NRP2, PDGFRβ, PSMA, RGS5, TEM1, VEGFR1 and VEGFR2 antigens were expressed in situ by blood vessel cells in the MC38 colon carcinoma TME (FIG. 14). Protection of HHD mice against a challenge with HLA-A2^neg MC38 tumor cells injected subcutaneously on day zero was assayed with immunization with TBVA-derived peptides on days −14 and −7. […]

[2] = test system: MC38 tumor microenvironment; test: Fluorescence imaging of MC38 tumor sections after prophylactic vaccination; type: in vivo, HHD mice; settings: day 14 tumors; p<0.05 vs. untreated or DC.IL12/no peptide
Description: Day 14 MC38 tumors were harvested from HHD mice that had been vaccinated as outlined in FIG. 9B with the indicated peptides (or control PBS or DC.IL12 alone=No peptide). In FIG. 10A, six-micron tissue sections were co-stained with anti-CD8 (green) and anti-NG2 (red) antibodies and imaged by fluorescence microscopy. Blue signal=nuclear counterstain using 4′,6-diamidino-2-phenylindole (DAPI). FIG. 10B provides a summary of the mean+/−SD number of CD8^+ cells per high-power field (HPF) in MC38 tumors isolated from control or vaccinated mice as depicted in FIG. 10A. In FIG. 10C, tissue sections were co-stained with anti-CD31 (green) and anti-NG2 (red) antibodies and imaged by fluorescence microscopy. Blue signal=nuclear counterstain using DAPI. In FIG. 10D, the mean+/−SD number of CD31^+ vessels per HPF of MC38 tumors in control or vaccinated mice are summarized Representative data is depicted from 1 of 3 independent experiments performed. *p<0.05 versus DC only or untreated control mice.
Fluorescence Imaging of Tumor Sections. Tumor tissue samples were prepared and 6 micron sections prepared as previously reported (Komita et al., Cancer Res., 68:8076-8084, 2008). The following Abs were used: (for T cell analyses), rabbit anti-mouse NG2 (Millipore, Bedford, Mass.) and alexa488-conjugated anti-CD4 or -CD8β antibodies or matching isotype controls (all from BD-Biosciences); (for vascular analyses), rat anti-mouse CD31 (BD-Biosciences) and rabbit anti-mouse NG2 (Millipore) Abs; (for TBVA), rat anti-mouse CD31 (BD-Biosciences) and guinea pig anti-mouse NG2 Abs, along with anti-TBVA as described in Example 1. Imaging was performed using an Olympus Fluoview 500 Confocal microscope (Olympus America, Center Valley, Pa.).
Protective vaccines incorporating TBVA peptides promote enhanced infiltration of the TME by CD8^+ T cells in association with an inhibition of tumor vascularity. MC38 tumor lesions from all cohorts of animals with evidence of disease on day 14 (post-tumor inoculation) were isolated and immunofluorescence microscopy on tumor sections was performed. […] In marked contrast, CD4^+ T cell infiltration in the TME was sparse and the data were indistinguishable when comparing control vs. vaccinated mice (FIG. 17). […] Correlative analyses indicated an association between the anti-tumor efficacy of vaccines and their ability to promote CD8^+ T cell infiltration and reduced vascularity in the TME (FIG. 16).

Substance	Specific CD8+ T cell Production of IFN-γ in Response to TASA ([1]; donor Mel4, melanoma patient)	Specific CD8+ T cell Production of IFN-γ in Response to TASA ([1]; donor Mel6, melanoma patient)	Specific CD8+ T cell Production of IFN-γ in Response to TASA ([1]; donor Mel7, melanoma patient)	Specific CD8+ T cell Production of IFN-γ in Response to TASA ([1]; donor ND5, normal donor)	Anti-tumor efficacy in MC38 protection model (MC38 colon carcinoma)	Protection against HLA-A2neg MC38 tumor challenge (MC38 colon carcinoma)	Suppression in CD31+ vessel counts in the MC38 TME [2]
VEGFR1: VEGFR1-derived peptide 770-778 pulsed onto DC or DC.IL12 (TLFWLLLTL; listed as Homo sapiens)	+ (Human responses were designated as + if T cell reactivity against T2 cells presenting the indicated peptide (IFN-γ ELISA) was >30 pg/ml and more than 2 fold higher than reactivity versus T2 cells pulsed with the negative control HIV-nef190-198 peptide)	+ (Human responses were designated as + if T cell reactivity against T2 cells presenting the indicated peptide (IFN-γ ELISA) was >30 pg/ml and more than 2 fold higher than reactivity versus T2 cells pulsed with the negative control HIV-nef190-198 peptide)	+ (Human responses were designated as + if T cell reactivity against T2 cells presenting the indicated peptide (IFN-γ ELISA) was >30 pg/ml and more than 2 fold higher than reactivity versus T2 cells pulsed with the negative control HIV-nef190-198 peptide)	+ (Human responses were designated as + if T cell reactivity against T2 cells presenting the indicated peptide (IFN-γ ELISA) was >30 pg/ml and more than 2 fold higher than reactivity versus T2 cells pulsed with the negative control HIV-nef190-198 peptide)	+/- (+/-, p < 0.05 versus DC only for 2 consecutive time points)	minimal protection	
VEGFR2: VEGFR2-derived peptide 773-781 pulsed onto DC or DC.IL12 (VIAMFFWLL; listed as Homo sapiens)					+/- (+/-, p < 0.05 versus DC only for 2 consecutive time points)	minimal protection	somewhat less pronounced effects
